This passage reports Binding affinity results from ChEMBL document CHEMBL1144335, “7alpha,11beta-Dimethyl-19-nortestosterone: a potent and selective androgen response modulator with prostate-sparing properties” (Bioorg Med Chem Lett, 2005).

Assay [1] addresses Estrogen receptor (Rattus norvegicus) (UniProt P06211+Q62986). As to the kind of experiment: Binding affinity for estrogen receptor in rat (n=3).
Assay [2] deals with T1, Androgen receptor (Rattus norvegicus) (UniProt P15207).
T1 sequence (whole entry): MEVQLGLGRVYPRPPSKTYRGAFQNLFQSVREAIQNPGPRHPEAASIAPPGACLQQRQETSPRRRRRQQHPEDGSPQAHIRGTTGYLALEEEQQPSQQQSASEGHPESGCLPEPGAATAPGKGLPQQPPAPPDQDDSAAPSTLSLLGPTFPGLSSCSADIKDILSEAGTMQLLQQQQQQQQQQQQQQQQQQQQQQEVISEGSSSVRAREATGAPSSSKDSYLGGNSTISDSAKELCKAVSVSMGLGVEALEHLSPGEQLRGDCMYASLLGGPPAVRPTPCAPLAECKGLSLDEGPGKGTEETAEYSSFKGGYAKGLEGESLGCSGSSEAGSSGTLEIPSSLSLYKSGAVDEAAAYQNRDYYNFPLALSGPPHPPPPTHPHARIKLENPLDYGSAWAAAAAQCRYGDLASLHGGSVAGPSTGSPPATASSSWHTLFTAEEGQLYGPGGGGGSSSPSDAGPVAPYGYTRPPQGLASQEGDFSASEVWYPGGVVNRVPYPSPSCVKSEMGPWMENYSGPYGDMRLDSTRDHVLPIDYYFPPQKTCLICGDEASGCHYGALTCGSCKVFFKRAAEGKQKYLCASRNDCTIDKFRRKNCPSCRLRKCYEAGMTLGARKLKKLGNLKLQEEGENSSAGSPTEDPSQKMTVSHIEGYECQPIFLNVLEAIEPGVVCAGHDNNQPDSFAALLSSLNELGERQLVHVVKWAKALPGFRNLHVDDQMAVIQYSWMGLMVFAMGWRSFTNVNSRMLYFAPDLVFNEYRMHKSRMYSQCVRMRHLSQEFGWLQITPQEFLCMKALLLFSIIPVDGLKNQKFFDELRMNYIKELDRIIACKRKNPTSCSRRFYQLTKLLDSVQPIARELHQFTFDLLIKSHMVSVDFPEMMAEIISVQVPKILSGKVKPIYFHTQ
Put plainly: Relative binding affinity for rat androgen receptor compared to dihydrotestosterone (100) (n=4).

Take `C[C@@H]1CC2=CC(=O)CCC2C2C1C1CC[C@H](O)[C@@]1(C)C[C@@H]2C` (stereo partly drawn): the Binding affinity was 0.6 in assay [1] and 194 in assay [2].
The compound `C[C@H]1C[C@@]2(C)C(CC[C@@H]2O)C2C1C1CCC(=O)C=C1C[C@@H]2C` (stereo partly drawn) gave a Binding affinity in assay [2] of 22.
